Patent US9192567B2, “Method for treating eye disease or conditions affecting the posterior segment of the eye” (SANTEN SAS, priority 2006, dated 2015)

Test: Intraocular pharmacokinetics of dexamethasone palmitate and dexamethasone following intravitreal administration
Conditions: following IVT injection of 800 ug of prodrug
Source text: Analytes and internal standard (roxithromycine) were extracted from the tissues using acetonitrile and separated by reverse phase liquid chromatography with a C8 column and a gradient mobile phase. […] The unweighed linear model was applied.
All concentrations are expressed in ng/g.

C[C@@H]1C[C@H]2[C@@H]3CCC4=CC(=O)C=C[C@]4(C)[C@@]3(F)[C@@H](O)C[C@]2(C)[C@@]1(O)C(=O)CO [D, dexamethasone]
time for which therapeutic levels were maintained in the target tissues: at least 2 months
